The experiment addresses T1, cloned human 5-HT6 receptor (Homo sapiens, UniProt P50406).
T1 construct: host or cells: HeLa cells (G-418 selection), membrane preparation
Briefly: 5-HT6 Receptor Binding Assay. To be noted: [3H]-lysergic acid diethylamide (LSD) radioligand, membranes of Hela cells containing the cloned human 5-HT6 receptor, SPA beads; estimated IC50 converted to Ki by Cheng-Prusoff. The protocol:
5-HT6 Receptor Binding Assay
Growth of Cells and Membrane Preparation
Hela cells containing the cloned human 5-HT6 receptor were acquired from Dr. David R. Sibley's laboratory in National Institute of Health (see Sibley, D. R., J. Neurochemistry, 66, 47-56, 1996). Cells were grown in high glucose Dulbecco's modified Eagle's medium, supplemented with L-glutamine, 0.5% sodium pyruvate, 0.3% penicillin-streptomycin, 0.025% G-418 and 5% Gibco fetal bovine serum and then were harvested, when confluent, in cold phosphate-buffered saline.
Harvested intact cells were washed once in cold phosphate-buffered saline. The cells were pelleted and resuspended in 100 ml of cold 50 mM Tris, 5 mM EDTA and 5 mM EGTA, pH 7.4. Homogenization was with a Vir Tishear generator, 4 cycles for 30 seconds each at setting 50. The homogenized cells were centrifuged at 700 RPM (1000×g) for 10 minutes and the supernatant was removed. The pellet was resuspended in 100 ml of the above buffer and rehomogenized for 2 cycles. The rehomogenized cells were then centrifuged at 700 RPM (1000×g) for 10 minutes and the supernatant was removed. The combined supernatant (200ml) was centrifuged at 23,000 RPM (80,000×g) for 1 hour in a Beckman Rotor (42.1 Ti). The membrane pellet was resupended in 50-8-ml of assay buffer containing HEPES 20 mM, MgCl2 10 mM, NaCl 150 mM, EDTA 1 mM, pH 7.4 and stored frozen in aliqouts at −70° C.
The radioligand binding assay used [^3H]-lysergic acid diethylamide (LSD). The assay was carried out in Wallac 96-well sample plates by the addition of 11 μl of the test sample at the appropriate dilution (the assay employed 11 serial concentrations of samples run in duplicate), 11 μl of radioligand, and 178 μl of a washed mixture of WGA-coated SPA beads and membranes in binding buffer. The plates were shaken for about 5 minutes and then incubated at room temperature for 1 hour. The plates were then loaded into counting cassettes and counted in a Wallac MicroBeta Trilux scintillation counter.
Binding Constant (Ki) Determination
Eleven serial dilutions of test compounds were distributed to assay plates using the PE/Cetus Pro/Pette pipetter. These dilutions were, followed by radioligand and the bead-membrane mixture prepared as described above. The specifically bound cpm obtained were fit to a one-site binding model using GraphPad Prism ver. 2.0. Estimated IC50 values were converted to Ki values using the Cheng-Prusoff equation (Cheng, Y. C. et al., Biochem. Pharmacol., 22, 3099-108, 1973).

pKi: −log10 of the molar value.

T1 sequence (P50406 whole entry): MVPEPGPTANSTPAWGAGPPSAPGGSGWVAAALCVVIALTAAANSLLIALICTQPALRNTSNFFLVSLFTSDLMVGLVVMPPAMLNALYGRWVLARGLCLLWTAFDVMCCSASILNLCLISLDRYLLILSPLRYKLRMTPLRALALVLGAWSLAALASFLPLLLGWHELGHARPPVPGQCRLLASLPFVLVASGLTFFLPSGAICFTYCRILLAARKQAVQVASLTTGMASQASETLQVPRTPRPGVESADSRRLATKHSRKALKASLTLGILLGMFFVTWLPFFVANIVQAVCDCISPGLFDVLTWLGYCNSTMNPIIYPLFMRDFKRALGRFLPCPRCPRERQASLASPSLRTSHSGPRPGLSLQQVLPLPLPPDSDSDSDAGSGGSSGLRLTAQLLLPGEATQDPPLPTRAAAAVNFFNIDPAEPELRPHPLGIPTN

On to `NCCOc1cccc2c1c1ccccc1n2Cc1csc2ccc(Cl)cc12` [Example 50, 2-({9-[(5-Chloro-1-benzothiophen-3-yl)methyl]-9H-carbazol-4-yl}oxy)ethylamine], for which the pKi (commonly the negative decadic logarithm of the Ki, by convention in mol/L) was 6.86. The figure for `COc1ccc2c3c(OCCN)cccc3n(Cc3ccccc3)c2c1` [Example 62, 2-[(9-Benzyl-7-methoxy-9H-carbazol-4-yl)oxy]ethylamine] is 7.22. For the molecule `c1ccc(Cn2c3ccccc3c3c(OCCNCCN4CCOCC4)cccc32)cc1` [Example 20, 2-[(9-benzyl-9H-carbazol-4-yl)oxy]-N-[2-(4-morpholinyl)ethyl]-1-ethanamine], the pKi was 7.43. Under `CCN(CC)CCOc1cccc2c1c1cc(C)ccc1n2Cc1ccccc1` [Example 45, N-{2-[(9-Benzyl-6-methyl-9H-carbazol-4-yl)oxy]ethyl}-N,N-diethylamine] stands 8.18; under `Fc1ccc(CCNCCOc2cccc3c2c2ccccc2n3Cc2ccccc2)cc1` [Example 22, 2-[(9-benzyl-9H-carbazol-4-yl)oxy]-N-(4-fluorophenethyl)-1-ethanamine], 7.09. Take `NCCOc1cccc2c1c1ccccc1n2Cc1cccc(Br)c1` [Example 53, 2-{[9-(3-Bromobenzyl)-9H-carbazol-4-yl]oxy}ethylamine]: the pKi is 6.90. The figure for `COc1ccc2c(c1)c1c(OCCN)cccc1n2Cc1ccccc1` [Example 61, 2-[(9-Benzyl-6-methoxy-9H-carbazol-4-yl)oxy]ethylamine] is 7.57; for `c1ccc(Cn2c3ccccc3c3c(OCCN4CCOCC4)cccc32)cc1` [Example 8, 9-benzyl-4-[2-(4-morpholinyl)ethoxy]-9H-carbazole] it is 6.40. With `NCCOc1cccc2c1c1ccccc1n2Cc1ccccc1F` [Example 56, 2-{[9-(2-Fluorobenzyl)-9H-carbazol-4-yl]oxy}ethylamine], the pKi was 6.92. The figure for `Clc1ccc(CCNCCOc2cccc3c2c2ccccc2n3Cc2ccccc2)cc1` [Example 18, 2-[(9-benzyl-9H-carbazol-4-yl)oxy]-N-(4-chlorophenethyl)-1-ethanamine] is 6.45; for `CCCNCCOc1cccc2c1c1ccccc1n2Cc1ccccc1` [Example 14, N-{2-[(9-benzyl-9H-carbazol-4-yl)oxy]ethyl}-1-propanamine] it is 7.40; for `CCN(CC)CCOc1cccc2c1c1cccc(C)c1n2Cc1ccccc1` [Example 4, N-{2-[(9-Benzyl-8-methyl-9H-carbazol-4-yl)oxy]ethyl}-N,N-diethylamine] it is 7.74. Consider `CCOC(=O)CCNCCOc1cccc2c1c1ccccc1n2Cc1ccccc1` [Example 25, ethyl 3-({2-[(9-benzyl-9H-carbazol-4-yl)oxy]ethyl}amino)propanoate], for which the pKi is 7.40. Under `c1ccc(Cn2c3ccccc3c3c(OCCNCC4CCCCC4)cccc32)cc1` [Example 19, 2-[(9-benzyl-9H-carbazol-4-yl)oxy]-N-(cyclohexylmethyl)-1-ethanamine] stands 6.51; under `O[C@H]1CCCC[C@@H]1NCCOc1cccc2c1c1ccccc1n2Cc1ccccc1` [Example 24, (1S,2S)-2-({2-[(9-benzyl-9H-carbazol-4-yl)oxy]ethyl}amino)cyclohexanol], 7.07; under `c1ccc(Cn2c3ccccc3c3c(OCCN4CCNCC4)cccc32)cc1` [Example 40, 9-Benzyl-4-[2-(1-piperazinyl)ethoxy]-9H-carbazole], 7.06.

For `O=CNCCN1CCN(CCOc2cccc3c2c2ccccc2n3Cc2ccccc2)CC1` [Example 27, 2-(4-{2-[(9-benzyl-9H-carbazol-4-yl)oxy]ethyl}-1-piperazinyl)ethylformamide], the pKi was 6.86. Under `OCCCNCCOc1cccc2c1c1ccccc1n2Cc1ccccc1` [Example 10, 3-({2-[(9-benzyl-9H-carbazol-4-yl)oxy]ethyl}amino)-1-propanol] stands 7.70. Regarding `CCN(CC)CCOc1cccc2c1c1cc(C)ccc1n2Cc1ccc(F)cc1` [Example 48, N,N-Diethyl-N-(2-{[9-(4-fluorobenzyl)-6-methyl-9H-carbazol-4-yl]oxy}ethyl)amine], the pKi is 6.91. For `CCNCCOc1cccc2c1c1ccccc1n2Cc1ccccc1` [Example 37, 2-[(9-benzyl-9H-carbazol-4-yl)oxy]-N-ethyl-1-ethanamine], the pKi was 7.96. The figure for `c1ccc(Cn2c3ccccc3c3c(OCCNCCCN4CCOCC4)cccc32)cc1` [Example 12] is 6.74; for `Cc1cccc(Cn2c3ccccc3c3c(OCCN)cccc32)c1` [Example 59, 2-{[9-(3-Methylbenzyl)-9H-carbazol-4-yl]oxy}ethylamine] it is 7.70. The figure for `CC(C)(CO)NCCOc1cccc2c1c1ccccc1n2Cc1ccccc1` [Example 17, 2-({2-[(9-benzyl-9H-carbazol-4-yl)oxy]ethyl}amino)-2-methyl-1-propanol] is 6.79. Under `OCCCCCNCCOc1cccc2c1c1ccccc1n2Cc1ccccc1` [Example 13, 5-({2-[(9-benzyl-9H-carbazol-4-yl)oxy]ethyl}amino)-1-pentanol] stands 7.37; under `Cc1ccc(Cn2c3ccccc3c3c(OCCN)cccc32)cc1` [Example 55, 2-{[9-(4-Methylbenzyl)-9H-carbazol-4-yl]oxy}ethylamine], 6.32. Consider `c1ccc(CN2CCC(NCCOc3cccc4c3c3ccccc3n4Cc3ccccc3)CC2)cc1` [Example 16, 1-benzyl-N-{2-[(9-benzyl-9H-carbazol-4-yl)oxy]ethyl}-4-piperidinamine], for which the pKi is 6.83. As to `OC1CCN(CCOc2cccc3c2c2ccccc2n3Cc2ccccc2)CC1` [Example 29, 1-{2-[(9-benzyl-9H-carbazol-4-yl)oxy]ethyl}-4-piperidinol], the pKi was 7.96. On to `COc1cccc(Cn2c3ccccc3c3c(OCCN)cccc32)c1` [Example 57, 2-{[9-(3-Methoxybenzyl)-9H-carbazol-4-yl]oxy}ethylamine], for which the pKi is 6.96. The figure for `c1ccc(Cn2c3ccccc3c3c(OCCN4CCCC4)cccc32)cc1` [Example 38, 9-Benzyl-4-[2-(1-pyrrolidinyl)ethoxy]-9H-carbazole] is 8.16; for `c1ccc(Cn2c3ccccc3c3c(OCCNCc4nc5ccccc5[nH]4)cccc32)cc1` [Example 28, N-(1H-benzimidazol-2-ylmethyl)-2-[(9-benzyl-9H-carbazol-4-yl)oxy]-1-ethanamine] it is 7.14. In the case of `c1ccc(Cn2c3ccccc3c3c(OCCNCc4ccccn4)cccc32)cc1` [Example 6, N-{2-[(9-Benzyl-9H-carbazol-4-yl)oxy]ethyl}-N-(2-pyridinylmethyl)amine], the pKi was 7.16. The figure for `NCCOc1cccc2c1c1ccccc1n2Cc1cccc(F)c1` [Example 54, 2-{[9-(3-Fluorobenzyl)-9H-carbazol-4-yl]oxy}ethylamine] is 7.00. The figure for `OCCOCCNCCOc1cccc2c1c1ccccc1n2Cc1ccccc1` [Example 23, 2-[2-({2-[(9-benzyl-9H-carbazol-4-yl)oxy]ethyl}amino)ethoxy]-1-ethanol] is 7.49. Take `c1ccc(Cn2c3ccccc3c3c(OCCNC4CCC4)cccc32)cc1` [Example 26, N-{2-[(9-benzyl-9H-carbazol-4-yl)oxy]ethyl}cyclobutanamine]: the pKi was 7.33. In the case of `OCCN1CCN(CCOc2cccc3c2c2ccccc2n3Cc2ccccc2)CC1` [Example 9, 2-(4-{2-[(9-benzyl-9H-carbazol-4-yl)oxy]ethyl}-1-piperazinyl)-1-ethanol], the negative logarithm of the Ki (pKi) is 7.21. The figure for `c1ccc(Cn2c3ccccc3c3c(OCCNC4CC4)cccc32)cc1` [Example 31, N-{2-[(9-benzyl-9H-carbazol-4-yl)oxy]ethyl}-N-cyclopropylamine] is 7.68.

Turning to `CCCN(CCC)CCOc1cccc2c1c1ccccc1n2Cc1ccccc1` [Example 15, N-{2-[(9-benzyl-9H-carbazol-4-yl)oxy]ethyl}-N-propyl-1-propanamine], the pKi is 6.40. Consider `CCC(O)CNCCOc1cccc2c1c1ccccc1n2Cc1ccccc1` (stereo not drawn) [Example 21, 1-({2-[(9-benzyl-9H-carbazol-4-yl)oxy]ethyl}amino)-2-butanol], for which the negative-log Ki (pKi) was 7.14. The figure for `NCCOc1cccc2c1c1ccccc1n2Cc1ccccc1` [Example 35, 2-[(9-Benzyl-9H-carbazol-4-yl)oxy]ethylamine] is 7.64.
